Reference: ChEMBL document CHEMBL1131315, “Synthesis and anticonvulsant activity of 2(3H)-benzoxazolone and 2(3H)-benzothiazolone derivatives” (J Med Chem, 1998)
The source made the active and inactive calls. The calls are words filed in the database; no cut-off is given here.

Legend:
[1] = biological target: Sigma non-opioid intracellular receptor 1 (Homo sapiens) (UniProt Q99720); test: Ratio between the Ki(nM)values of sigma-2 and sigma-1; type: functional
[2] = tested on: Mus musculus; test: The compound was tested for anticonvulsant activity in Maximal electroshock seizure test (MES) for 4 hr in mice(ip); no activity or toxicity at 300 mg/kg; type: functional, organism-based; parameters: dose 300 mg/kg
[3] = tested on: Rattus norvegicus; test: The compound was tested peroral dose of 30 mg/kg for 4 hours for rotarod toxicity; 0/4; type: functional; conditions: route oral
[4] = tested on: Rattus norvegicus; test: The compound was tested for the effective oral dose to inhibit 50% of the anticonvulsant in rats.(Value in parenthesis indicate 95% confidence limits); type: functional
[5] = biological target: Sigma 2 receptor; test: Affinity on sigma 2 receptor using [3H]- DTG as radioligand
[6] = tested on: Rattus norvegicus; test: The compound was tested peroral dose of 30 mg/kg for 2 hours for maximal electroshock test on rats; MES= 0/4; type: functional; conditions: route oral
[7] = tested on: Rattus norvegicus; test: The compound was tested peroral dose of 30 mg/kg for 0.25 hours for rotarod toxicity; 0/4; type: functional; conditions: route oral
[8] = tested on: Rattus norvegicus; test: The compound was tested peroral dose of 30 mg/kg for 1 hour for maximal electroshock test on rats; MES= 1/4; type: functional; conditions: route oral
[9] = tested on: Mus musculus; test: Anticonvulsant activity in subcutaneous pentylenetetrazole seizure test for 30 min in mice; No activity/toxicity at 300 mg/kg.; type: functional, organism-based; parameters: dose 300 mg/kg
[10] = tested on: Mus musculus; test: Inhibition of s.c. pentylenetetrazole induced seizure in mice following i.p. administration.; type: functional
[11] = tested on: Mus musculus; test: The anticonvulsant activity in subcutaneous pentylenetetrazole seizure test (sc Met) for 4 hr in mice; no activity or no toxicity at 300 mg/kg; type: functional, organism-based; parameters: dose 300 mg/kg
[12] = tested on: Rattus norvegicus; test: The compound was tested peroral dose of 30 mg/kg for 1 hour for rotarod toxicity; 0/4; type: functional; conditions: route oral
[13] = species on record: Rattus norvegicus; test: (§1) Protective index value is the ratio between ED50 and TD50; type: functional
[14] = The compound was tested for time of peak effect (TPE) in hours for its toxicity in mice on ip administration.; type: organism-based; conditions: mouse, in vivo
[15] = tested on: Rattus norvegicus; test: The compound was tested peroral dose of 30 mg/kg for 0.25 hours for maximal electroshock test on rats; MES= 3/4; type: functional; conditions: route oral
[16] = The compound was tested for neurologic toxicity (rotarod) test for 4 hours in mice; no activity or no toxicity at 300 mg/kg; type: organism-based; parameters: dose 300 mg/kg; conditions: mouse, in vivo
[17] = tested on: Mus musculus; test: The compound was tested for anticonvulsant activity in Maximal electroshock seizure test for 30 min in mice(ip); active at 30 mg/kg; type: functional, organism-based; parameters: dose 30 mg/kg
[18] = tested on: Rattus norvegicus; test: The compound was tested peroral dose of 30 mg/kg for 4 hours for maximal electroshock test on rats; MES= 1/4; type: functional; conditions: route oral
[19] = tested on: Rattus norvegicus; test: The compound was tested peroral dose of 30 mg/kg for 2 hours for rotarod toxicity; 0/4; type: functional; conditions: route oral
[20] = tested on: Rattus norvegicus; test: The compound was tested peroral dose of 30 mg/kg for 0.5 hours for maximal electroshock test on rats; MES= 3/4; type: functional; conditions: route oral
[21] = tested on: Rattus norvegicus; test: The compound was tested peroral dose of 30 mg/kg for 0.5 hours for rotarod toxicity; 0/4; type: functional; conditions: route oral
[22] = The compound was tested for neurologic toxicity (rotarod) test for 30 min in mice; active at 300 mg/kg; type: organism-based; parameters: dose 300 mg/kg; conditions: mouse, in vivo, 0.5 h
[23] = tested on: Mus musculus; test: (§2) The compound was determined for the dose (mg/kg) by rotarod test at the time of peak neurotoxic effect in mice on ip administration.; type: functional
[24] = tested on: Mus musculus; test: Time of peak effect in mice following i.p. administration.; type: functional
[25] = tested on: Rattus norvegicus; test: The compound was tested for the toxic dose on oral administration.; type: functional
[26] = tested on: Mus musculus; test: The compound was tested to inhibit 50% of induced maximal electroshock seizure in mice on ip administration.; type: functional
[27] = tested on: Rattus norvegicus; test: The compound was tested per os dose of 25 mg/kg for 0.25 hours for maximal electroshock test on rats; MES= 2/4; type: functional
[28] = tested on: Rattus norvegicus; test: The compound was tested per os dose of 25 mg/kg for 0.5 hours for rotarod toxicity; 0/4; type: functional
[29] = tested on: Rattus norvegicus; test: The compound was tested per os dose of 25 mg/kg for 1 hour for maximal electroshock test on rats; MES= 4/4; type: functional
[30] = tested on: Rattus norvegicus; test: The compound was tested for the effective oral dose to inhibit 50% of the anticonvulsant in rats.(Value in parenthesis indicate 95% confidence limits).; type: functional
[31] = The compound was tested for neurologic toxicity (rotarod) test for 4 hours in mice; active at 30 mg/kg; type: organism-based; parameters: dose 30 mg/kg; conditions: mouse, in vivo
[32] = tested on: Mus musculus; test: The compound was tested for anticonvulsant activity in subcutaneous pentylenetetrazole seizure test (sc Met) for 4 hr in mice; active at 300 mg/kg; type: functional, organism-based; parameters: dose 300 mg/kg
[33] = The compound was tested for neurologic toxicity (rotarod) test for 30 min in mice; active at 30 mg/kg; type: organism-based; parameters: dose 30 mg/kg; conditions: mouse, in vivo, 0.5 h
[34] = tested on: Rattus norvegicus; test: The compound was tested per os dose of 25 mg/kg for 4 hours for maximal electroshock test on rats; MES= 2/4; type: functional
[35] = tested on: Mus musculus; test: The compound was tested for anticonvulsant activity in subcutaneous pentylenetetrazole seizure test (sc Met) for 30 min in mice; active at 100 mg/kg; type: functional, organism-based; parameters: dose 100 mg/kg
[36] = tested on: Mus musculus; test: The compound was tested for anticonvulsant activity in Maximal electroshock seizure test (MES) for 4 hr in mice(ip); active at 100 mg/kg; type: functional, organism-based; parameters: dose 100 mg/kg
[37] = as §1; type: functional
[38] = tested on: Rattus norvegicus; test: The compound was tested per os dose of 25 mg/kg for 0.5 hours for maximal electroshock test on rats; MES= 2/4; type: functional
[39] = tested on: Rattus norvegicus; test: The compound was tested per os dose of 25 mg/kg for 0.25 hours for rotarod toxicity; 0/4; type: functional
[40] = The compound was tested for the toxic dose on oral administration. (Value in parenthesis indicate 95% confidence limits).; type: ADME; conditions: rat
[41] = tested on: Rattus norvegicus; test: The compound was tested per os dose of 25 mg/kg for 2 hours for maximal electroshock test on rats; MES= 3/4; type: functional
[42] = as §2; type: ADME, organism-based; conditions: mouse, in vivo
[43] = tested on: Rattus norvegicus; test: The compound was tested per os dose of 25 mg/kg for 2 hours for rotarod toxicity; 0/4; type: functional
[44] = tested on: Rattus norvegicus; test: The compound was tested per os dose of 25 mg/kg for 4 hours for rotarod toxicity; 0/4; type: functional
[45] = tested on: Rattus norvegicus; test: The compound was tested per os dose of 25 mg/kg for 1 hour for rotarod toxicity; 0/4; type: functional

Sigma non-opioid intracellular receptor 1 (Homo sapiens), sequence (Q99720 whole entry): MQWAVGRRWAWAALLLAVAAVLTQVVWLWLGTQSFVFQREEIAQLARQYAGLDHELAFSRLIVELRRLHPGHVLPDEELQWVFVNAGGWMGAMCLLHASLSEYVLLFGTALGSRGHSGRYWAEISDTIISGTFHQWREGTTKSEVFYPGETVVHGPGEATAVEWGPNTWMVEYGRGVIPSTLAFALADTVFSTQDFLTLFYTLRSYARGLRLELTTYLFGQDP

CCCc1ccc2c(c1)sc(=O)n2CCN1CCCCC1
Ratio [1]: 29 | MES [2]: active at 30 mg/kg | No. of animals exhibiting toxicity / Number of animals tested [3]: 0 | ED50 [4]: 18.6 mg/kg | Ki [5]: 18.1 nM | Protected/Tested [6]: 0 | No. of animals exhibiting toxicity / Number of animals tested [7]: 0 | Protected/Tested [8]: 1 | scMet [9]: No activity or no toxicity at 300 mg/kg | ED50 [10]: > 75 mg/kg | scMet [11]: No activity or no toxicity at 300 mg/kg | No. of animals exhibiting toxicity / Number of animals tested [12]: 0 | PI [13]: 26.9 | Toxicity [14]: 0.25 h | Protected/Tested [15]: 3 | Rotarod toxicity [16]: active at 300 mg/kg | MES [17]: active at 30 mg/kg | Protected/Tested [18]: 1 | No. of animals exhibiting toxicity / Number of animals tested [19]: 0 | Protected/Tested [20]: 3 | No. of animals exhibiting toxicity / Number of animals tested [21]: 0 | Rotarod toxicity [22]: active at 300 mg/kg | TD50 [23]: 29.4 mg/kg | Activity [24]: 0.25 h | TD50 [25]: < 500 mg/kg | ED50 [26]: 7.6 mg/kg

Cn1c(=O)sc2ccccc21
Protected/Tested [27]: 2 | No. of animals exhibiting toxicity / Number of animals tested [28]: 0 | Protected/Tested [29]: 4 | ED50 [30]: 16.2 mg/kg | Rotarod toxicity [31]: active at 30 mg/kg | scMet [32]: active at 100 mg/kg | Rotarod toxicity [33]: active at 30 mg/kg | Protected/Tested [34]: 2 | scMet [35]: active at 100 mg/kg | MES [36]: active at 100 mg/kg | PI [37]: 8.6 | Protected/Tested [38]: 2 | ED50 [10]: > 100 mg/kg | Toxicity [14]: 0.25 h | No. of animals exhibiting toxicity / Number of animals tested [39]: 0 | MES [17]: active at 100 mg/kg | TD50 [40]: 140 mg/kg | Protected/Tested [41]: 3 | Activity [24]: 0.25 h | TD50 [42]: 55.2 mg/kg | No. of animals exhibiting toxicity / Number of animals tested [43]: 0 | ED50 [26]: 24.2 mg/kg | No. of animals exhibiting toxicity / Number of animals tested [44]: 0 | No. of animals exhibiting toxicity / Number of animals tested [45]: 0
